{
  "source": "patent US7569547B2",
  "about": "“Inhibiting furin with polybasic peptides” (Board of Supervisors of Louisiana State University and …, priority 2001, dated 2009)",
  "key": {"[1]": {"molecular_target": "T1, PACE4 (Rattus norvegicus, UniProt Q63415)", "T1 construct": "made in house; host or cells: stably transfected hEK-293 cells (gift of R. E. Mains), conditioned medium", "T1 sequence (Q63415 133-937)": "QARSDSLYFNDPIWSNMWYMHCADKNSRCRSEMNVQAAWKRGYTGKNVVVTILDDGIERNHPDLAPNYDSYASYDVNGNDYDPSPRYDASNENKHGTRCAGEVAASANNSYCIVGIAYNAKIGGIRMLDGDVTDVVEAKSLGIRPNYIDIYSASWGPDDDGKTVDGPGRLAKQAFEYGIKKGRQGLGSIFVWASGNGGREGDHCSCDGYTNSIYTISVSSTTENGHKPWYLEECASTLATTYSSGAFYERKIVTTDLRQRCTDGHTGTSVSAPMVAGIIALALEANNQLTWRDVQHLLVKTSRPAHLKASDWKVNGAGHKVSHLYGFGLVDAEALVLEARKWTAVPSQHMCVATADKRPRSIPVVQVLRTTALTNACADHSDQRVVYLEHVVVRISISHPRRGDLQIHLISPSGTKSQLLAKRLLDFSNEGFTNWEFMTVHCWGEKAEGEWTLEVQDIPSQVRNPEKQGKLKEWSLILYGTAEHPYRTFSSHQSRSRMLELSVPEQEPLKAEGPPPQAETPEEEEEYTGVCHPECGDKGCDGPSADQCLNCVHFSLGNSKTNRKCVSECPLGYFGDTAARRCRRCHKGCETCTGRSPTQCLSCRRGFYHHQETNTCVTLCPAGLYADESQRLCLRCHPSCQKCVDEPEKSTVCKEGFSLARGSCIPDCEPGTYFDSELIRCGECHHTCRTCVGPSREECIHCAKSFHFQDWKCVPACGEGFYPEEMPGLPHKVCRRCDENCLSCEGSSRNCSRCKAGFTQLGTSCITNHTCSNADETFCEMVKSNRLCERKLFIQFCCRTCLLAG", "assay": "PACE4 enzyme assay, hydrolysis of pERTKR-MCA", "assay_type": "biochemical", "method": "The proprotein convertase PACE4 was partially purified from an overnight-conditioned medium of stably transfected hEK-293 human embryonic kidney cells (a generous gift of R. E. Mains, Johns Hopkins University School of Medicine, Baltimore, Md.). Briefly, 100 mL of conditioned medium (OptiMEM containing 100 μg/mL aprotinin) was loaded onto an Econo-Pac Q (Bio-Rad) column at 4 mL/min, washed with 10 mL of buffer A, and then eluted with a linear gradient of buffer A containing 500 mM NaCl over 50 mL. The active fractions were then diluted 1:4 with buffer A prior to loading onto a Mono Q column (Pharmacia) at 1 mL/min. The PACE4 was eluted with a linear gradient of buffer A containing 500 mM NaCl over 10 mL. The resulting active fractions were then pooled and stored at −80° C. until use.\n(§1) Enzyme Assays and Hexapeptide Library Screening. Enzyme assays for PC1 and PC2 were performed at pH 5.0 using pERTKR-MCA (Peptides International Inc., Louisville, Ky.) as described in E. Apletalina et al., J. Biol. Chem., vol. 273, pp. 26589-26595 (1998). The assay for furin was performed using the same substrate at pH 7.0 in 100 mM HEPES, 5 mM CaCl2, 0.1% Brij 35. All assays were performed at 37° C. in a 96 well fluorometer (Labsystems) at an excitation wavelength of 380 nm with emission monitored at a wavelength of 460 nm. The total volume was 50 μL. Unless otherwise stated, the final substrate concentration for all assays was 200 μM. When used in a particular experiment, the inhibitory peptides were pre-incubated with enzyme for 30 min at room temperature prior to addition of substrate. All assays were performed in duplicate or triplicate."}, "[2]": {"molecular_target": "T2, recombinant mouse furin (Mus musculus, UniProt P23188)", "T2 construct": "truncated N-terminally to the transmembrane domain at His^711 using PCR; myc (C, cleaved yes); hexa-His (C, cleaved yes); made in house; host or cells: DG44 CHO cells, conditioned medium", "T2 sequence (P23188 108-714 limits assumed)": "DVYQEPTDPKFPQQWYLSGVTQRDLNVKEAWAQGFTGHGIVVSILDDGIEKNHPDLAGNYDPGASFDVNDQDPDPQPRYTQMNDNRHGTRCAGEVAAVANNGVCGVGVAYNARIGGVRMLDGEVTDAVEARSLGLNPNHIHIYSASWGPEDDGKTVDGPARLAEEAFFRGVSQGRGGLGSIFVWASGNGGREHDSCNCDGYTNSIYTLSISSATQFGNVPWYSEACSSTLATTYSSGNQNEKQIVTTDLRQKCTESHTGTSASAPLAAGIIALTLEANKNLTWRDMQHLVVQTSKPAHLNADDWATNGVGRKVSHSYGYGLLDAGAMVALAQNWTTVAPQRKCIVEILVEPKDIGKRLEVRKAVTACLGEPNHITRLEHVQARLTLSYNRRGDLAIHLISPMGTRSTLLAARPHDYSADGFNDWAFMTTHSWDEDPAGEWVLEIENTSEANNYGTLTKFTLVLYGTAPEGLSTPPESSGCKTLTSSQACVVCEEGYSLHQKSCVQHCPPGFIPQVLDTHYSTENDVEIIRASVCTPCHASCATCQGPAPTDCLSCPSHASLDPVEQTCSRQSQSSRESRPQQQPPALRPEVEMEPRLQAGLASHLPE", "assay": "Furin enzyme assay, hydrolysis of pERTKR-MCA at pH 7.0", "assay_type": "biochemical", "conditions": "for type of inhibition of furin (Lineweaver-Burk plots): furin 30 nM, 0, 20 or 40 μM hexapeptide, polyarginines forty-fold lower", "text": "Recombinant convertase preparation. The mouse furin clone was a kind gift from K. Nakayama (Fukuoka University School of Medicine, Fukuoka, Japan). The mouse furin cDNA was truncated N-terminally to the transmembrane domain at His^711 using PCR. This PCR product was then subcloned into pcDNA3.1 (−) myc-His (Invitrogen) at the Nhe1 and Xba1 restriction sites. Dihydrofolate-reductase-negative DG44 Chinese Hamster Ovary (CHO) cells (L. Chasin, Columbia University, New York, N.Y.) were transfected using Lipofectin (Life Technologies), and colonies were selected at 37° C. in 5% CO2 in α-MEM (lacking nucleosides) containing 10% well-dialyzed fetal bovine serum (Life Technologies). Conditioned media from colonies were screened using an enzyme assay (see below), and a high-expressing clone was selected. Overexpression of furin was achieved by increasing the methotrexate concentration from 5 nM to 50 μM in five- to ten-fold steps as described in I. Lindberg et al., Methods Neurosci., vol. 23, pp. 94-108 (1995). The amplified lines were tested for increased furin expression by enzyme assay. Once the 50 μM methotrexate level had been reached, cells were split at ratios of 1:6 twice a week. 100 mL of conditioned media (OptiMEM, Life Technologies) containing 100 μg/mL aprotinin (Miles Laboratories, Kankakee, Ill.) was collected from confluent roller bottles every 24 h. The medium was then centrifuged at low speed to remove cells, and the supernatant was stored at −80° C. until use.\nPurification of furin: Conditioned medium was thawed, pooled, and diluted 1:3.5 with buffer A (20 mM HEPES, 0.1% Brij 35, 5 mM CaCl2, pH 7.4), and pumped at 40 mL/min through a Sartorius D100 anion exchange membrane. The membrane was washed with 40 mL of buffer A, followed by 40 mL of buffer A containing 50 mM NaCl, and finally by 40 mL of buffer A containing 200 mM NaCl. The fraction eluting with 200 mM NaCl was diluted 1:4 with buffer A and applied to a 1 mL Pharmacia Mono Q HR5/5 anion exchange column at a flow rate of 1 mL/min. Following a 10 mL wash with buffer A, furin was eluted by a linear increase of 0 to 500 mM NaCl in buffer A over 30 mL; and 2 mL fractions were collected. Fractions containing peak activity were pooled, and 200 μL aliquots were subjected to gel permeation chromatography using a Pharmacia Superose 12 column at a flow rate of 0.5 mL/min of buffer A containing 200 mM NaCl. Fractions were assayed for activity as described below; protein content was determined using the Bradford method. All purification steps were performed at 4° C.\nas §1"}},
  "note": "Like-named read-outs stand apart in the source and are kept apart here.",
  "data": [
    {"compound": "N=C(N)NCCC[C@@H](NC(=O)[C@H](N)CCCN=C(N)N)C(=O)N[C@H](CCCNC(=N)N)C(=O)N[C@H](CCCNC(=N)N)C(=O)N[C@H](CCCNC(=N)N)C(=O)N[C@H](CCCN=C(N)N)C(=O)O", "note": "[Hexa-D-arginine]", "values": [
      {"measurement": "Ki", "setting": "[1]; polyarginine peptides, mean ± S.D., three experiments, read-out: Ki PACE4", "value": "0.58 ± 0.04", "unit": "µM"},
      {"measurement": "type of inhibition of furin (Lineweaver-Burk plots)", "setting": "[2]", "value": "strictly competitive-type inhibition"}
    ]},
    {"compound": "N=C(N)NCCC[C@H](NC(=O)[C@H](CCCNC(=N)N)NC(=O)[C@H](CCCNC(=N)N)NC(=O)[C@H](CCCNC(=N)N)NC(=O)[C@H](CCCNC(=N)N)NC(=O)[C@@H](N)CCCNC(=N)N)C(=O)O", "note": "[Hexa-L-arginine]", "values": [
      {"measurement": "Ki", "setting": "[1]", "value": "0.52 ± 0.045", "unit": "µM"},
      {"measurement": "type of inhibition of furin (Lineweaver-Burk plots)", "setting": "[2]", "value": "strictly competitive-type inhibition"}
    ]},
    {"compound": "N=C(N)NCCC[C@H](NC(=O)[C@H](CCCNC(=N)N)NC(=O)[C@H](CCCNC(=N)N)NC(=O)[C@H](CCCNC(=N)N)NC(=O)[C@H](CCCNC(=N)N)NC(=O)[C@H](CCCNC(=N)N)NC(=O)[C@H](CCCNC(=N)N)NC(=O)[C@H](CCCNC(=N)N)NC(=O)[C@@H](N)CCCNC(=N)N)C(=O)O", "note": "[Nona-L-arginine]", "values": [
      {"measurement": "Ki", "setting": "[1]", "value": "0.11 ± 0.013", "unit": "µM"},
      {"measurement": "Ki", "setting": "[2]", "value": 0.042, "unit": "µM"},
      {"measurement": "type of inhibition of furin (Lineweaver-Burk plots)", "setting": "[2]", "value": "strictly competitive-type inhibition"}
    ]}
  ]
}
